Like-named read-outs stand apart in the source and are kept apart here.
Experiments:
Format in all cases: cell-based
wild-type HIV-1 (WT) = assay: IC50 against wild-type HIV-1 (Table 9a); conditions: (WT)
[1] = tested on: multidrug-resistant HIV-1 clinical isolate, patient 20; assay: microbe, parasite or virus in culture; conditions: Patient Isolate 20
Method: (§1) The mutant multidrug-resistant HIV-1 strains corresponding to each patient, numbered 9-35, were genetically analyzed in terms of the nucleic acid sequences of the protease (PR) and a portion of the reverse transcriptase (RT) genes from which mutations in these enzymes were determined. The mutations in the protease and reverse transcriptase of the multidrug-resistant viruses isolated from each patient are shown below in Table 9b.

[2] = tested on: multidrug-resistant HIV-1 clinical isolate, patient 19; assay: microbe, parasite or virus in culture; conditions: Patient Isolate 19
Method: as §1

[3] = tested on: multidrug-resistant HIV-1 clinical isolate, patient 18; assay: microbe, parasite or virus in culture; conditions: Patient Isolate 18
Method: as §1

[4] = tested on: multidrug-resistant HIV-1 clinical isolate, patient 13; assay: microbe, parasite or virus in culture; conditions: Patient Isolate 13
Method: as §1

[5] = tested on: multidrug-resistant HIV-1 clinical isolate, patient 28; assay: microbe, parasite or virus in culture; conditions: Patient Isolate 28
Method: as §1

[6] = tested on: multidrug-resistant HIV-1 clinical isolate, patient 33; assay: microbe, parasite or virus in culture; conditions: Patient Isolate 33
Method: as §1

[7] = tested on: multidrug-resistant HIV-1 clinical isolate, patient 29; assay: microbe, parasite or virus in culture; conditions: Patient Isolate 29
Method: as §1

[8] = tested on: multidrug-resistant HIV-1 clinical isolate, patient 9; assay: microbe, parasite or virus in culture; conditions: Patient Isolate 9
Method: as §1

[9] = tested on: multidrug-resistant HIV-1 clinical isolate, patient 23; assay: microbe, parasite or virus in culture; conditions: Patient Isolate 23
Method: as §1

[10] = tested on: multidrug-resistant HIV-1 clinical isolate, patient 14; assay: microbe, parasite or virus in culture; conditions: Patient Isolate 14
Method: as §1

[11] = tested on: multidrug-resistant HIV-1 clinical isolate, patient 16; assay: microbe, parasite or virus in culture; conditions: Patient Isolate 16
Method: as §1

[12] = tested on: multidrug-resistant HIV-1 clinical isolate, patient 12; assay: microbe, parasite or virus in culture; conditions: Patient Isolate 12
Method: as §1

[13] = tested on: multidrug-resistant HIV-1 clinical isolate, patient 32; assay: microbe, parasite or virus in culture; conditions: Patient Isolate 32
Method: as §1

[14] = tested on: multidrug-resistant HIV-1 clinical isolate, patient 30; assay: microbe, parasite or virus in culture; conditions: Patient Isolate 30
Method: as §1

[15] = tested on: multidrug-resistant HIV-1 clinical isolate, patient 31; assay: microbe, parasite or virus in culture; conditions: Patient Isolate 31
Method: as §1

[16] = tested on: multidrug-resistant HIV-1 clinical isolate, patient 35; assay: microbe, parasite or virus in culture; conditions: Patient Isolate 35
Method: as §1

[17] = tested on: multidrug-resistant HIV-1 clinical isolate, patient 15; assay: microbe, parasite or virus in culture; conditions: Patient Isolate 15
Method: as §1

[18] = tested on: multidrug-resistant HIV-1 clinical isolate, patient 11; assay: microbe, parasite or virus in culture; conditions: Patient Isolate 11
Method: as §1

[19] = tested on: multidrug-resistant HIV-1 clinical isolate, patient 27; assay: microbe, parasite or virus in culture; conditions: Patient Isolate 27
Method: as §1

[20] = tested on: multidrug-resistant HIV-1 clinical isolate, patient 21; assay: microbe, parasite or virus in culture; conditions: Patient Isolate 21
Method: as §1

[21] = tested on: multidrug-resistant HIV-1 clinical isolate, patient 10; assay: microbe, parasite or virus in culture; conditions: Patient Isolate 10
Method: as §1

[22] = tested on: multidrug-resistant HIV-1 clinical isolate, patient 22; assay: IC50 against multidrug-resistant clinical isolates (Table 9a)
Method: as §1

[23] = tested on: multidrug-resistant HIV-1 clinical isolate, patient 34; assay: as above
Method: as §1

[24] = tested on: multidrug-resistant HIV-1 clinical isolate, patient 4; assay: PHA-PBMC assay, p24 Gag protein production; conditions: Human immunodeficiency virus 1; Patient/Isolate code 4; PHA-PBMC, p24
Method: (§2) The patient profiles are shown below in Table 2.
(§3) To determine protease inhibitory activity against multidrug resistant HIV, the IC50's were measured against a panel of clinically isolated mutant HIV isolates.
(§4) All drug sensitivities were performed in triplicate. In order to determine whether the HIV isolates were syncitium inducing (SI) or non-syncitium inducing (NSI), an aliquot of viral stock supernatant, containing 100 TCID50, was cultured with 1×10^5 MT-2 cells in a 12-well plate. Cultures were maintained for four weeks and were examined for syncytium formation twice a week.

[25] = tested on: multidrug-resistant HIV-1 clinical isolate, patient 5; assay: PHA-PBMC assay, p24 Gag protein production; conditions: Human immunodeficiency virus 1; Patient/Isolate code 5; PHA-PBMC, p24
Method: as §2, §3, §4

[26] = tested on: multidrug-resistant HIV-1 clinical isolate, patient 3; assay: PHA-PBMC assay, p24 Gag protein production; conditions: Human immunodeficiency virus 1; Patient/Isolate code 3; PHA-PBMC, p24
Method: as §2, §3, §4

[27] = tested on: multidrug-resistant HIV-1 clinical isolate, patient 6; assay: PHA-PBMC assay, p24 Gag protein production; conditions: Human immunodeficiency virus 1; Patient/Isolate code 6; PHA-PBMC, p24
Method: as §2, §3, §4

[28] = tested on: multidrug-resistant HIV-1 clinical isolate, patient 8; assay: PHA-PBMC assay, p24 Gag protein production; conditions: Human immunodeficiency virus 1; Patient/Isolate code 8; PHA-PBMC, p24
Method: as §2, §3, §4

[29] = tested on: multidrug-resistant HIV-1 clinical isolate, patient 1; assay: PHA-PBMC assay, p24 Gag protein production; conditions: Human immunodeficiency virus 1; Patient/Isolate code 1; PHA-PBMC, p24
Method: as §2, §3, §4

[30] = tested on: multidrug-resistant HIV-1 clinical isolate, patient 7; assay: PHA-PBMC assay, p24 Gag protein production; conditions: Human immunodeficiency virus 1; Patient/Isolate code 7; PHA-PBMC, p24
Method: as §2, §3, §4

HIV-1ERS104pre = assay: PHA-PBMC assay, p24 Gag protein production; conditions: Human immunodeficiency virus 1; HIV-1ERS104pre, SI; PHA-PBMC, p24
Method: as §2, §3, §4

[31] = tested on: multidrug-resistant HIV-1 clinical isolate, patient 2; assay: PHA-PBMC assay, p24 Gag protein production; conditions: Human immunodeficiency virus 1; Patient/Isolate code 2; PHA-PBMC, p24
Method: as §2, §3, §4

HIV-1LAI = assay: PHA-PBMC assay, p24 Gag protein production; conditions: Human immunodeficiency virus 1; HIV-1LAI, SI; PHA-PBMC, p24 (Table 3)
[32] = tested on: multidrug-resistant HIV-1 clinical isolate, patient 17; assay: microbe, parasite or virus in culture; conditions: Human immunodeficiency virus 1; Patient Isolate 17
Method: as §1

HIV-1BAL = assay: PHA-PBMC assay, p24 Gag protein production; conditions: Human immunodeficiency virus 1; HIV-1BAL, NSI; PHA-PBMC, p24 (Table 3)

`O=c1[nH]cnc2c1ncn2[C@H]1CC[C@@H](CO)O1` [DDI, 2′3′-dideoxyinosine] showed an IC50 (wild-type HIV-1 (WT)) of 0.895 µM, an IC50 [1] of 7.1 µM and an IC50 [2] of 36.6 µM. It also gave an IC50 [3] of 2.2 µM, an IC50 [4] of 0.5 µM and an IC50 [5] of 2.8 µM. For the same compound, the IC50 [6] was 2 µM, the IC50 [7] was 3.8 µM and the IC50 [8] was 0.7 µM. For the same compound, the IC50 [9] was 1.8 µM, the IC50 [10] was 2.4 µM and the IC50 [11] was 3.5 µM. It also gave an IC50 [12] of 0.9 µM, an IC50 [13] of 8.4 µM and an IC50 [14] of 2.8 µM. It also gave an IC50 [15] of 2.6 µM, an IC50 [16] of 17 µM and an IC50 [17] of 2.2 µM. It also gave an IC50 [18] of 2.4 µM, an IC50 [19] of 2.6 µM and an IC50 [20] of 1 µM. The IC50 [21] was 1.7 µM, the IC50 ([22]; Patient Isolate 22, read-out: IC50) was 3.7 µM and the IC50 ([23]; Patient Isolate 34, read-out: IC50) was 9.1 µM.

`CC(C)(C)NC(=O)[C@@H]1CN(Cc2cccnc2)CCN1C[C@@H](O)C[C@@H](Cc1ccccc1)C(=O)N[C@H]1c2ccccc2C[C@H]1O` [IDV, Indinavir] gave an IC50 [24] of 0.24 µM, an IC50 [25] of 0.8 µM and an IC50 [26] of 0.46 µM. The IC50 [27] was 0.37 µM, the IC50 [28] was greater than 1 µM and the IC50 [29] was greater than 1 µM. For the same compound, the IC50 [30] was greater than 1 µM, the IC50 (HIV-1ERS104pre) was 0.013 µM and the IC50 [31] was 0.24 µM. The IC50 (wild-type HIV-1 (WT); Human immunodeficiency virus 1) was 0.02 µM, the IC50 (HIV-1LAI) was 0.019 µM and the IC50 ([1]; Human immunodeficiency virus 1) was 0.591 µM. The IC50 ([2]; Human immunodeficiency virus 1) was 0.784 µM, the IC50 ([3]; Human immunodeficiency virus 1) was 0.369 µM and the IC50 ([4]; Human immunodeficiency virus 1) was greater than 1.25 µM. It also gave an IC50 ([5]; Human immunodeficiency virus 1) of 1.04 µM, an IC50 ([6]; Human immunodeficiency virus 1) of 0.133 µM and an IC50 ([7]; Human immunodeficiency virus 1) of 0.569 µM. It also gave an IC50 ([8]; Human immunodeficiency virus 1) of 1.09 µM, an IC50 ([9]; Human immunodeficiency virus 1) of 0.461 µM and an IC50 ([10]; Human immunodeficiency virus 1) of 0.089 µM. For the same compound, the IC50 ([11]; Human immunodeficiency virus 1) was 0.384 µM, the IC50 ([12]; Human immunodeficiency virus 1) was greater than 1.25 µM and the IC50 ([13]; Human immunodeficiency virus 1) was 0.223 µM. It also gave an IC50 ([14]; Human immunodeficiency virus 1) of 0.27 µM, an IC50 ([15]; Human immunodeficiency virus 1) of 0.251 µM and an IC50 [32] of 0.502 µM. The IC50 ([16]; Human immunodeficiency virus 1) was 0.509 µM, the IC50 ([17]; Human immunodeficiency virus 1) was 0.265 µM and the IC50 ([18]; Human immunodeficiency virus 1) was 0.012 µM. For the same compound, the IC50 ([19]; Human immunodeficiency virus 1) was greater than 1.25 µM, the IC50 ([21]; Human immunodeficiency virus 1) was greater than 1.25 µM and the IC50 ([22]; Human immunodeficiency virus 1) was 0.173 µM. The IC50 ([23]; Human immunodeficiency virus 1) was 0.595 µM and the IC50 (HIV-1BAL) was 0.0056 µM.

Reference: US9889115B2, “Fitness assay and associated methods” (priority 1998, dated 2018)
